One assay addresses BRD9 bromodomain (Homo sapiens (Human), UniProt Q9H8M2). The assay is described as follows: BRD9 bromodomain TR-FRET competition binding assay. The procedure: Procedure: His-Flag-BRD9 (P133-K239; Swiss Prot Q9H8M2; SEQ ID NO:1 mgsshhhhhhenlyfq/gdykddddkgslevlfqg/[…] […]) was cloned, expressed, purified, and then treated with TEV protease. Cleaved His tag was removed by purification. The binding of a biotinylated small molecule ligand of BRD9 was assessed via the LANCE® TR-FRET platform (PerkinElmer), and the compounds were assayed for inhibitory activity against this interaction.
Results: A mixture of biotinylated-ligand and SureLight™ Allophycocyanin-Streptavidin (APC-SA, PerkinElmer AD0201) in 50 mM HEPES (pH 7.4), 50 mM NaCl, 1 mM TCEP (pH 7), 0.01% (v/v) Tween-20, 0.01% (w/v) bovine serum albumin was added to a white 384-well PerkinElmer Proxiplate Plus plate. DMSO or 3-fold serially diluted compounds were then added to the Proxiplate followed by addition of Flag-BRD9. After a 10-minute incubation at room temperature, Eu—W1024 anti-FLAG (PerkinElmer, AD0273) was added. The final reaction mixture that contained 3.75 nM biotinylated ligand, 3 nM Flag-BRD9, 7.5 nM SureLight™ Allophycocyanin-Streptavidin, and 0.2 nM Eu—W1024 anti-FLAG was incubated at room temperature for 90 minutes.
The plates were then read on a PerkinElmer Envision plate reader to determine the ratio of emission at 665 nm over 615 nm. […]
In general terms: Time-resolved FRET reads energy transfer from a long-lived donor to a nearby acceptor.

The target of assay [1] is Nanoluciferase-BRD9 fusion protein (3×FLAG-NLuc-BRD9) in SYO-1 cells (Homo sapiens (Human), UniProt Q9H8M2). The assay is described as follows: SYO1 BRD9 NanoLuc degradation assay. The class given is cell-based. Conditions: SYO-1 cells, 6 hours, Table 6A. The method in brief:
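Stable SYO-1 line expressing 3×FLAG-NLuc-BRD9, treated with 10-point 3-fold dilutions (top 1 μM final) for 6 hours. Nanoluciferase luminescence read with Nano-Glo reagent. % inhibition relative to DMSO (high control) and 1 μM reference BRD9 degrader (low control).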

Where only a bound is given, the exact number is not on record here.

BRD9 bromodomain, sequence (Q9H8M2 133-239): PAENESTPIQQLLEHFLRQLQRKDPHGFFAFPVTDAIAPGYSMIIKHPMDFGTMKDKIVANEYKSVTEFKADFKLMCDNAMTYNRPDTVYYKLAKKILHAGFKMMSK
Nanoluciferase-BRD9 fusion protein (3×FLAG-NLuc-BRD9) in SYO-1 cells, sequence (Q9H8M2 whole entry, the tested form may be a part): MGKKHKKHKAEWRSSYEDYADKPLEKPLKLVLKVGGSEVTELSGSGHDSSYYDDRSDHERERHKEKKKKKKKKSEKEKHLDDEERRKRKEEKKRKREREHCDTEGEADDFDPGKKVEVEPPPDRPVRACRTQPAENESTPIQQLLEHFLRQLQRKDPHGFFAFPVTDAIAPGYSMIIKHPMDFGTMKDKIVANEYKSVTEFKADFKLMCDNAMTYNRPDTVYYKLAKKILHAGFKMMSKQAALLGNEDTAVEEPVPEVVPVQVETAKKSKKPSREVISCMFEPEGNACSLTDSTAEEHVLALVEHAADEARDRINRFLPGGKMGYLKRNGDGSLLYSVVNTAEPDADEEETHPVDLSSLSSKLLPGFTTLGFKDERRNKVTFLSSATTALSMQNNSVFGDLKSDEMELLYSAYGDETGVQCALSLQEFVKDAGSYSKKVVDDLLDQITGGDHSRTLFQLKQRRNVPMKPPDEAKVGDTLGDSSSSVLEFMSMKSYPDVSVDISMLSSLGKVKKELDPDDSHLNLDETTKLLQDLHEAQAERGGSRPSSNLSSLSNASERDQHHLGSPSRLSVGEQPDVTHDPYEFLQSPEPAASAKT

One may read the IC50 as the midpoint of a concentration-inhibition curve. Read a high IC50 as weaker potency. The compound `COc1cc(-c2cn(C)c(=O)c3c2CCNC3)cc(OC)c1CN(C)C` [Compound B17, 4-[4-[(dimethylamino)methyl]-3,5-dimethoxyphenyl]-2-methyl-1,2,5,6,7,8-hexahydro-2,7-naphthyridin-1-one] came in with a 50% inhibitory concentration (IC50) at BRD9 bromodomain of over 1000 nM.
On the same count and under the same terms, the result for `CNC(=O)N1CCc2c(c(-c3cc(OC)c(CN(C)C)c(OC)c3)cn(C)c2=O)C1` [Compound B18, 8-[4-[(dimethylamino)methyl]-3,5-dimethoxyphenyl]-N,6-dimethyl-5-oxo-3,4-dihydro-1H-2,6-naphthyridine-2-carboxamide] reads over 10 nM.
Still for that read-out and setting: the result for `CCCCNS(=O)(=O)N1CCc2c(-c3cc(OC)c(CN(C)C)c(OC)c3)cn(C)c(=O)c2C1` [Compound B19, N-butyl-5-{4-[(dimethylamino)methyl]-3,5-dimethoxyphenyl}-7-methyl-8-oxo-1,2,3,4,7,8-hexahydro-2,7-naphthyridine-2-sulfonamide] reads over 10 nM.
`CCCCNC(=S)N1CCc2c(-c3cc(OC)c(CN(C)C)c(OC)c3)cn(C)c(=O)c2C1` [Compound B20, N-butyl-5-(4-((dimethylamino)methyl)-3,5-dimethoxyphenyl)-7-methyl-8-oxo-3,4,7,8-tetrahydro-2,7-naphthyridine-2 (1H)-carbothioamide] returned a 50% inhibitory concentration (IC50) at BRD9 bromodomain of over 10 nM.
Consider `COc1cc(-c2cn(C)c(=O)c3c2CN(C(=O)N(C)C)CC3)cc(OC)c1CN(C)C` [Compound B21, 8-[4-[(dimethylamino)methyl]-3,5-dimethoxyphenyl]-N,N,6-trimethyl-5-oxo-3,4-dihydro-1H-2,6-naphthyridine-2-carboxamide], for which the IC50 at BRD9 bromodomain is over 100 nM.
`COc1cc(-c2cn(C)c(=O)c3c2CCN(C(=O)NCCOCCNc2cccc4c2C(=O)N(C2CCC(=O)NC2=O)C4=O)C3)c(OC)cc1CN(C)C` (centres unmarked) [Compound D14, 5-[4-[(dimethylamino)methyl]-2,5-dimethoxyphenyl]-N-[2-(2-[[2-(2,6-dioxopiperidin-3-yl)-1,3-dioxoisoindol-4-yl]amino]ethoxy)ethyl]-7-methyl-8-oxo-3,4-dihydro-1H-2,7-naphthyridine-2-carboxamide formic acid]: the IC50 is over 100 nM in assay [1] and over 10 nM at BRD9 bromodomain.
`CNC(=O)N1CCc2c(-c3cc(OC)c(CN4CC(NC(=O)CCCCCOc5cccc6c5C(=O)N(C5CCC(=O)NC5=O)C6=O)C4)cc3OC)cn(C)c(=O)c2C1` (centres unmarked) [Compound D15, 5-(4-[[3-(6-[[2-(2,6-Dioxopiperidin-3-yl)-1,3-dioxoisoindol-4-yl]oxy]hexanamido)azetidin-1-yl]methyl]-2,5-dimethoxyphenyl)-N,7-dimethyl-8-oxo-3,4-dihydro-1H-2,7-naphthyridine-2-carboxamide formic acid]: the figures for the half-maximal inhibitory concentration (IC50) (in assay [1]; on BRD9 bromodomain) were over 100 nM and over 10 nM, respectively.
As to `COc1cc(-c2cn(C)c(=O)c3c2CCN(C(=O)NCCOCCNc2cccc4c2C(=O)N(C2CCC(=O)NC2=O)C4=O)C3)cc(OC)c1CN(C)C` (centres unmarked) [Compound D17, 5-[4-[(dimethylamino)methyl]-3,5-dimethoxyphenyl]-N-[2-(2-[[2-(2,6-dioxopiperidin-3-yl)-1,3-dioxoisoindol-4-yl]amino]ethoxy)ethyl]-7-methyl-8-oxo-3,4-dihydro-1H-2,7-naphthyridine-2-carboxamide formic acid], the IC50 (in assay [1]; at BRD9 bromodomain) was over 10 nM in each case.
`COc1cc(-c2cn(C)c(=O)c3c2CCN(C(=O)NCCCCCOc2cccc4c2C(=O)N(C2CCC(=O)NC2=O)C4=O)C3)cc(OC)c1CN(C)C` (centres unmarked) [Compound D18, 5-[4-[(dimethylamino)methyl]-3,5-dimethoxyphenyl]-N-(5-[[2-(2,6-dioxopiperidin-3-yl)-1,3-dioxoisoindol-4-yl]oxy]pentyl)-7-methyl-8-oxo-3,4-dihydro-1H-2,7-naphthyridine-2-carboxamide]: the IC50 (in assay [1]; at BRD9 bromodomain) was over 10 nM each time.
Regarding `COc1cc(-c2cn(C)c(=O)c3c2CCN(C(=O)CCCCCCCCNc2cccc4c2C(=O)N(C2CCC(=O)NC2=O)C4=O)C3)cc(OC)c1CN(C)C` (centres unmarked) [Compound D19, 4-[[9-(5-[4-[(dimethylamino)methyl]-3,5-dimethoxyphenyl]-7-methyl-8-oxo-1,2,3,4,7,8-hexahydro-2,7-naphthyridin-2-yl)-9-oxononyl]amino]-2-(2,6-dioxopiperidin-3-yl)-2,3-dihydro-1H-isoindole-1,3-dione], the concentration for half-maximal inhibition (IC50) (in assay [1]; at BRD9 bromodomain) was over 1000 nM in each case.
On to `COc1cc(-c2cn(C)c(=O)c3c2CCN(C(=O)CCCCCOc2cccc4c2C(=O)N(C2CCC(=O)NC2=O)C4=O)C3)cc(OC)c1CN(C)C` (centres unmarked) [Compound D20, ([4-[7-(6-[[2-(2,6-dioxopiperidin-3-yl)-1,3-dioxo-2,3-dihydro-1H-isoindol-4-yl]oxy]hexanoyl)-2-methyl-1-oxo-1,2,5,6,7,8-hexahydro-2,7-naphthyridin-4-yl]-2,6-dimethoxyphenyl]methyl)(methyl)aminyl], for which the IC50 (in assay [1]; at BRD9 bromodomain) was over 1000 nM throughout.
Take `COc1cc(-c2cn(C)c(=O)c3c2CCN(C(=O)NCCOCCNc2ccc4c(c2)C(=O)N(C2CCC(=O)NC2=O)C4=O)C3)cc(OC)c1CN(C)C` (centres unmarked) [Compound D21, 5-[4-[(dimethylamino)methyl]-3,5-dimethoxyphenyl]-N-[2-(2-[[2-(2,6-dioxopiperidin-3-yl)-1,3-dioxoisoindol-5-yl]amino]ethoxy)ethyl]-7-methyl-8-oxo-3,4-dihydro-1H-2,7-naphthyridine-2-carboxamide formic acid]: the half-maximal inhibitory concentration (IC50) (in assay [1]; at BRD9 bromodomain) was over 10 nM each time.
Take `COc1cc(-c2cn(C)c(=O)c3c2CCN(C(=O)NCCCCCOc2ccc4c(c2)C(=O)N(C2CCC(=O)NC2=O)C4=O)C3)cc(OC)c1CN(C)C` (centres unmarked) [Compound D22, formic acid]: the IC50 (in assay [1]; at BRD9 bromodomain) was under 10 nM in each case.
At BRD9 bromodomain, `COc1cc(-c2cn(C)c(=O)c3c2CCN(C(=O)NC2CCN(CCOc4ccc5c(c4)C(=O)N(C4CCC(=O)NC4=O)C5=O)CC2)C3)cc(OC)c1CN(C)C` (centres unmarked) [Compound D26, 5-[4-[(dimethylamino)methyl]-3,5-dimethoxyphenyl]-N-[1-(2-[[2-(2,6-dioxopiperidin-3-yl)-1,3-dioxoisoindol-5-yl]oxy]ethyl)piperidin-4-yl]-7-methyl-8-oxo-3,4-dihydro-1H-2,7-naphthyridine-2-carboxamide formic acid] gave a half-inhibitory concentration (IC50) of under 10 nM.
The same measure, in the same setting: the result for `COc1cc(-c2cn(C)c(=O)c3c2CN(C(=O)NCCOCCNc2cccc4c2C(=O)N(C2CCC(=O)NC2=O)C4=O)CC3)cc(OC)c1CN(C)C` (centres unmarked) [Compound D27, 8-[4-[(dimethylamino)methyl]-3,5-dimethoxyphenyl]-N-[2-(2-[[2-(2,6-dioxopiperidin-3-yl)-1,3-dioxoisoindol-4-yl]amino]ethoxy)ethyl]-6-methyl-5-oxo-3,4-dihydro-1H-2,6-naphthyridine-2-carboxamide formic acid] reads over 100 nM.
Regarding `COc1cc(-c2cn(C)c(=O)c3c2CCN(C(=O)NCCOCCOCC(=O)N[C@H](C(=O)N2C[C@H](O)C[C@H]2C(=O)NCc2ccc(-c4scnc4C)cc2)C(C)(C)C)C3)cc(OC)c1CN(C)C` [Compound D34, (2S,4R)-1-[(2S)-2-(2-[2-[2-(5-[4-[(dimethylamino)methyl]-3,5-dimethoxyphenyl]-7-methyl-8-oxo-3,4-dihydro-1H-2,7-naphthyridine-2-carbonylamino)ethoxy]ethoxy]acetamido)-3,3-dimethylbutanoyl]-4-hydroxy-N-[[4-(4-methyl-1,3-thiazol-5-yl)phenyl]methyl]pyrrolidine-2-carboxamide formic acid], the IC50 on BRD9 bromodomain was over 10 nM.
Same read-out and setting: for `COc1cc(-c2cn(C)c(=O)c3c2CCN(C(=O)NCCOCCOCCOCC(=O)N[C@@H](C(=O)N2C[C@@H](O)C[C@@H]2C(=O)NCc2ccc(-c4scnc4C)cc2)C(C)(C)C)C3)cc(OC)c1CN(C)C` [Compound D35, (2R,4S)-1-[(2R)-2-[2-(2-[2-[2-(5-[4-[(dimethylamino)methyl]-3,5-dimethoxyphenyl]-7-methyl-8-oxo-3,4-dihydro-1H-2,7-naphthyridine-2-carbonylamino)ethoxy]ethoxy]ethoxy)acetamido]-3,3-dimethylbutanoyl]-4-hydroxy-N-[[4-(4-methyl-1,3-thiazol-5-yl)phenyl]methyl]pyrrolidine-2-carboxamide] the value was over 10 nM; for `COc1cc(-c2cn(C)c(=O)c3c2CCN(C(=O)NCCCCCC(=O)N[C@H](C(=O)N2C[C@H](O)C[C@H]2C(=O)NCc2ccc(-c4scnc4C)cc2)C(C)(C)C)C3)cc(OC)c1CN(C)C` [Compound D36, (2S,4R)-1-[(2S)-2-[6-(5-[4-[(dimethylamino)methyl]-3,5-dimethoxyphenyl]-7-methyl-8-oxo-3,4-dihydro-1H-2,7-naphthyridine-2-carbonylamino)hexanamido]-3,3-dimethylbutanoyl]-4-hydroxy-N-[[4-(4-methyl-1,3-thiazol-5-yl)phenyl]methyl]pyrrolidine-2-carboxamide], over 10 nM.
